Patent US20260027068A1, “METHODS OF ADM[…]-KETAMINE” (Perception Neuroscience, Inc., priority 2022, published 2026)
Where two headings read alike, the source gives them in different places.

How the values were obtained:
[1] = in vivo; cited from earlier work
[2] = tested on: rats; test: Alcohol tolerance; type: in vivo
[3] = tested on: rodents; conditions: cited from earlier work
[4] = tested on: CYP1A2; test: In vitro CYP induction
[5] = Pulse (vital signs)
Procedure: The Investigational Medicinal Product (IMP) R(−)-ketamine hydrochloride in sterile water for intravenous injection was investigated as an […] treatment of TRD. The International Union of Pure and Applied Chemistry (IUPAC) name is of the IMP is (2R)-2-(2-chlorophenyl)-2-(methylamino)cyclohexan-1-one. Subjects received the solution at either 30 mg or 60 mg dose, or a placebo. The IMP or placebo was administered on Day 1 as a single IV infusion via an electronic infusion pump over 40 minutes. The duration of study participation for each subject was up to 29 days including a screening period, a 3-day in-clinic visit, and 2 follow-up visits. 101 subjects were enrolled in approximately 20 study centers in the EU and the US.
Tympanic or temporal temperature, heart rate, blood pressure (SBP/DBP), respiratory rate, and SpO2 were assessed. Blood pressure and pulse measurements will be assessed with a completely automated device while the subject is supine or semi-supine. Manual techniques will be used only if an automated device is not available. Blood pressure and pulse measurements should be preceded by at least 5 minutes of rest for the subject in a quiet setting without distractions (e.g., television, cell phones). An abnormal blood pressure value at screening may be repeated once after 5 minutes of relaxation to determine the subject's eligibility. Blood pressure was recorded using the same arm and position (supine or semi-supine) throughout the study, where possible. Vital signs (to be taken before blood collection for laboratory tests) consisted of 1 pulse and 3 blood pressure measurements (3 consecutive blood pressure readings will be recorded at intervals of at least 1 minute). The average of the 3 blood pressure readings was recorded in the CRF. A pulse oximeter was used to measure peripheral capillary oxygen saturation (SpO2) continuously from pre-dose until 4-hours post-dose. A pulse oximeter was clipped onto the finger or foot of the subject, and light will be sent through the finger or foot and measured on the other side.
In these tables, baseline value is defined as the last non-missing value prior to study drug administration.

[6] = tested on: sigma receptor; conditions: cited from earlier work
[7] = tested on: CYP2B6; conditions: in vitro

SMILES: CN[C@@]1(c2ccccc2Cl)CCCCC1=O.Cl [R(−)-ketamine, (2R)-2-(2-chlorophenyl)-2-(methylamino)cyclohexan-1-one]
- Side effects (hyperlocomotion, prepulse inhibition deficit, drug dependence) [1]: did not
- Effect on alcohol tolerance [2]: mitigated the effects of alcohol tolerance
- Conditioned place preference ([3]; 20 mg/kg): did not cause conditioned place preference
- Conditioned place preference ([3]; 40 mg/kg): did cause conditioned place preference
- CYP1A2 induction [4]: inducer
- Pulse: Mean ([5]; 30 mg, Day 1, 15 minutes): 69.4 beats/minute
- Pulse: Median ([5]; 30 mg, Day 1, 15 minutes): 70.0 beats/minute
- Pulse: Mean ([5]; 30 mg, Day 1, 40 minutes): 69.9 beats/minute
- Pulse: Median ([5]; 30 mg, Day 1, 40 minutes): 70.0 beats/minute
- Pulse: Mean ([5]; 30 mg, Day 1, 60 minutes): 67.2 beats/minute
- Pulse: Median ([5]; 30 mg, Day 1, 60 minutes): 68.5 beats/minute
- Pulse: Mean ([5]; 30 mg, Day 1, 2 hours): 70.7 beats/minute
- Pulse: Median ([5]; 30 mg, Day 1, 2 hours): 70.0 beats/minute
- Pulse: Mean ([5]; 30 mg, Day 1, 4 hours): 72.1 beats/minute
- Pulse: Median ([5]; 30 mg, Day 1, 4 hours): 72.0 beats/minute
- Pulse: Mean ([5]; 30 mg, Day 1, 6 hours): 70.7 beats/minute
- Pulse: Median ([5]; 30 mg, Day 1, 6 hours): 72.0 beats/minute
- Pulse: Mean ([5]; 30 mg, Day 2 - Discharge): 73.5 beats/minute
- Pulse: Median ([5]; 30 mg, Day 2 - Discharge): 75.0 beats/minute
- Pulse: Mean ([5]; 30 mg, Day 8): 74.1 beats/minute
- Pulse: Median ([5]; 30 mg, Day 8): 74.0 beats/minute
- Pulse: Mean ([5]; 30 mg, Day 15): 74.4 beats/minute
- Pulse: Median ([5]; 30 mg, Day 15): 75.0 beats/minute
- Pulse: Change from Baseline, Mean ([5]; 30 mg, to Day 1, 15 minutes): −0.4 beats/minute
- Pulse: Change from Baseline, Median ([5]; 30 mg, to Day 1, 15 minutes): 0.0 beats/minute
- Pulse: Change from Baseline, Mean ([5]; 30 mg, to Day 1, 40 minutes): −0.6 beats/minute
- Pulse: Change from Baseline, Median ([5]; 30 mg, to Day 1, 40 minutes): −1.0 beats/minute
- Pulse: Change from Baseline, Mean ([5]; 30 mg, to Day 1, 60 minutes): −2.5 beats/minute
- Pulse: Change from Baseline, Median ([5]; 30 mg, to Day 1, 60 minutes): −3.5 beats/minute
- Pulse: Change from Baseline, Mean ([5]; 30 mg, to Day 1, 2 hours): 0.2 beats/minute
- Pulse: Change from Baseline, Median ([5]; 30 mg, to Day 1, 2 hours): −2.0 beats/minute
- Pulse: Change from Baseline, Mean ([5]; 30 mg, to Day 1, 4 hours): 1.6 beats/minute
- Pulse: Change from Baseline, Median ([5]; 30 mg, to Day 1, 4 hours): 2.0 beats/minute
- Pulse: Change from Baseline, Mean ([5]; 30 mg, to Day 1, 6 hours): 0.2 beats/minute
- Pulse: Change from Baseline, Median ([5]; 30 mg, to Day 1, 6 hours): 1.0 beats/minute
- Pulse: Change from Baseline, Mean ([5]; 30 mg, to Day 2 - Discharge): 3.1 beats/minute
- Pulse: Change from Baseline, Median ([5]; 30 mg, to Day 2 - Discharge): 2.0 beats/minute
- Pulse: Change from Baseline, Mean ([5]; 30 mg, to Day 8): 2.1 beats/minute
- Pulse: Change from Baseline, Median ([5]; 30 mg, to Day 8): 1.0 beats/minute
- Pulse: Change from Baseline, Mean ([5]; 30 mg, to Day 15): 3.3 beats/minute
- Pulse: Change from Baseline, Median ([5]; 30 mg, to Day 15): 2.0 beats/minute
- Pulse: Mean ([5]; 60 mg, Day 1, 15 minutes): 67.3 beats/minute
- Pulse: Median ([5]; 60 mg, Day 1, 15 minutes): 66.5 beats/minute
- Pulse: Mean ([5]; 60 mg, Day 1, 40 minutes): 68.0 beats/minute
- Pulse: Median ([5]; 60 mg, Day 1, 40 minutes): 68.0 beats/minute
- Pulse: Mean ([5]; 60 mg, Day 1, 60 minutes): 64.9 beats/minute
- Pulse: Median ([5]; 60 mg, Day 1, 60 minutes): 65.0 beats/minute
- Pulse: Mean ([5]; 60 mg, Day 1, 2 hours): 68.2 beats/minute
- Pulse: Median ([5]; 60 mg, Day 1, 2 hours): 70.0 beats/minute
- Pulse: Mean ([5]; 60 mg, Day 1, 4 hours): 70.7 beats/minute
- Pulse: Median ([5]; 60 mg, Day 1, 4 hours): 72.0 beats/minute
- Pulse: Mean ([5]; 60 mg, Day 1, 6 hours): 72.6 beats/minute
- Pulse: Median ([5]; 60 mg, Day 1, 6 hours): 71.0 beats/minute
- Pulse: Mean ([5]; 60 mg, Day 2 - Discharge): 72.2 beats/minute
- Pulse: Median ([5]; 60 mg, Day 2 - Discharge): 70.0 beats/minute
- Pulse: Mean ([5]; 60 mg, Day 8): 73.3 beats/minute
- Pulse: Median ([5]; 60 mg, Day 8): 70.0 beats/minute
- Pulse: Mean ([5]; 60 mg, Day 15): 71.0 beats/minute
- Pulse: Median ([5]; 60 mg, Day 15): 69.0 beats/minute
- Pulse: Change from Baseline, Mean ([5]; 60 mg, to Day 1, 15 minutes): 0.0 beats/minute
- Pulse: Change from Baseline, Median ([5]; 60 mg, to Day 1, 15 minutes): 0.5 beats/minute
- Pulse: Change from Baseline, Mean ([5]; 60 mg, to Day 1, 40 minutes): −4.7 beats/minute
- Pulse: Change from Baseline, Median ([5]; 60 mg, to Day 1, 40 minutes): −5.0 beats/minute
- Pulse: Change from Baseline, Mean ([5]; 60 mg, to Day 1, 60 minutes): −2.3 beats/minute
- Pulse: Change from Baseline, Median ([5]; 60 mg, to Day 1, 60 minutes): −1.0 beats/minute
- Pulse: Change from Baseline, Mean ([5]; 60 mg, to Day 1, 2 hours): −4.5 beats/minute
- Pulse: Change from Baseline, Median ([5]; 60 mg, to Day 1, 2 hours): −5.0 beats/minute
- Pulse: Change from Baseline, Mean ([5]; 60 mg, to Day 1, 4 hours): −2.0 beats/minute
- Pulse: Change from Baseline, Median ([5]; 60 mg, to Day 1, 4 hours): −1.0 beats/minute
- Pulse: Change from Baseline, Mean ([5]; 60 mg, to Day 1, 6 hours): −0.3 beats/minute
- Pulse: Change from Baseline, Median ([5]; 60 mg, to Day 1, 6 hours): 0.5 beats/minute
- Pulse: Change from Baseline, Mean ([5]; 60 mg, to Day 2 - Discharge): −0.6 beats/minute
- Pulse: Change from Baseline, Median ([5]; 60 mg, to Day 2 - Discharge): −1.0 beats/minute
- Pulse: Change from Baseline, Mean ([5]; 60 mg, to Day 8): 0.6 beats/minute
- Pulse: Change from Baseline, Median ([5]; 60 mg, to Day 8): 0.0 beats/minute
- Pulse: Change from Baseline, Mean ([5]; 60 mg, to Day 15): −1.7 beats/minute
- Pulse: Change from Baseline, Median ([5]; 60 mg, to Day 15): 0.0 beats/minute
- Higher affinity to the sigma receptor compared with S(+)-ketamine [6]: 15 fold
- CYP2B6 induction [7]: inducer
